According to patent US11559497B2 (Guangzhou Dazhou Biomedicine Ltd., priority 2020, dated 2023):

Assays:
[1] = Phase 1 clinical study: plasma pharmacokinetics after ketamine transdermal patch; details: for AUC / AUC(0-inf) / Cmax / half-life / Tmax: human, plasma, other: transdermal patch; for AUC(0-inf): AUCinf
Procedure: Enrollment was planned to achieve participation of up to 14 adult subjects with MDD in the 3 stages of the protocol. Subjects were to be screened within 4 weeks of enrollment. Eligible subjects who provided written consent were to be enrolled into Stage 1 of the study. In Stage 1 of the study, subjects were to receive the low-dose transdermal patch. The amount of residual drug was to be measured and PK analysis conducted for each subject to inform the subsequent dosing. In Stage 2, after a 2 to 4 week washout period, a placebo patch was to be administered. A “deception” protocol was used in order to ensure the subjects remained blinded to the treatment. Placebo administration was followed by a 1 week washout period, after which subjects were to receive the high-dose transdermal patch in Stage 3. The overall study duration from screening until the end of Stage 3 was approximately 60 days, including both inpatient and outpatient portions of the study. The general study design is illustrated in FIG. 3.
The patch was predicted to deliver systemically approximately 20 mg.
For Stage 1, blood samples were collected pre-patch application, and at 2, 6, 12, 24, 28, 32, 48, 96, and 168 hours post-patch application.
Blood samples were collected in tubes containing sodium heparin and stored on ice or room temperature until centrifuged under refrigeration or room temperature for at least 10 minutes at 3,000 revolutions per minute. After centrifugation, plasma was removed, divided into 2 aliquots of approximately 0.6 mL each, frozen, and stored at or below −20° C. Blood was processed to plasma and frozen within 1 hour of collection. Processed frozen plasma samples were transferred on dry ice to the analytical laboratory and were stored at or below −20° C. until bioanalysis was performed.
A non-compartmental analysis (NCA) was used to calculate PK parameters using Phoenix® WinNonlin® 6.4 or later (Certara, USA).

[2] = tested on: subjects diagnosed with major depressive disorder (MDD); experiment: Phase 1 clinical study: safety; format: in vivo, human
Description: Safety data included adverse events (AEs), concomitant medications, PE, vital signs (VS), ECGs, clinical laboratory results, other safety measures based on questionnaires (Clinician-Administered Dissociative States Scale [CADSS], Observer's Assessment of Alertness/Sedation Scale [OAA/S], Brief Psychiatric Rating Scale [BPRS]), and the emergence of suicidality based on the suicidal ideation and suicidal behavior ratings of the Columbia-Suicide Severity Rating Scale (C-SSRS). Safety summaries and analyses were performed on the Safety Population and were presented by treatment. Observed data was summarized using counts and percentages for discrete variables and means, SD, median, inter-quartile range (25th-75th percentile), minimum, and maximum for continuous measures.

[3] = cited from earlier work
[4] = tested on: patients; details: cited from earlier work
[5] = Stage 1: Ketamine Low-Dose (N = 18)
[6] = Stage 3: Ketamine High-Dose (N = 12)

## CNC1(c2ccccc2Cl)CCCCC1=O (racemic) [Ketamine, ketamine]
[1]; 96 hours post dose
  plasma concentration: minimal values
[1]; 168 hours post dose
  plasma concentration: below quantification limit
[1]; Stage 1, Mean
  Extrap: 6%
[1]; Stage 1, Median
  Extrap: 6%
[1]; Stage 3, Mean
  Extrap: 4%
[1]; Stage 3, Median
  Extrap: 3%
[1]; 20 mg, AUCall, Stage 1 (60 cm^2 patch, 24 h, low-dose), Mean
  AUC: 284 ng·h/mL
[1]; 20 mg, AUCall, Stage 1 (60 cm^2 patch, 24 h, low-dose), Median
  AUC: 280 ng·h/mL
[1]; 20 mg, Stage 1, Mean
  AUC(0-inf): 299 ng·h/mL
  Cmax: ~10.3 ng/mL
  Tmax: 27.1 h
[1]; 20 mg, Stage 1, Median
  AUC(0-inf): 274 ng·h/mL
  Cmax: 9.92 ng/mL
  Tmax: 28 h
[1]; 20 mg, T1/2, Stage 1, Mean
  half-life: 13.2 h
[1]; 20 mg, T1/2, Stage 1, Median
  half-life: 13.7 h
[1]; 20 mg, average AUC of ketamine per cm^2 patch over 24 hours, Stage 1
  AUC: 3.62 ng·h/mL
[1]; 40 mg, AUCall, Stage 3 (20 and 60 cm^2 patches, high-dose), Mean
  AUC: 393 ng·h/mL
[1]; 40 mg, AUCall, Stage 3 (20 and 60 cm^2 patches, high-dose), Median
  AUC: 339 ng·h/mL
[1]; 40 mg, Stage 3, Mean
  AUC(0-inf): 423 ng·h/mL
  Cmax: ~14.4 ng/mL
  Tmax: 27 h
[1]; 40 mg, Stage 3, Median
  AUC(0-inf): 362 ng·h/mL
  Cmax: 9.67 ng/mL
  Tmax: 28 h
[1]; 40 mg, T1/2, Stage 3, Mean
  half-life: 13.8 h
[1]; 40 mg, T1/2, Stage 3, Median
  half-life: 14.9 h
[1]; 40 mg, average AUC of ketamine per cm^2 patch over 24 hours, Stage 3
  AUC: 4.17 ng·h/mL
[2]; 20 mg and 40 mg doses
  overall safety and tolerability: generally safe and well tolerated
[2]; [5]
  At least 1 TEAE, # of Events: 3
  At least 1 TEAE, n (%): 3 (16.7) n (%)
  Cardiac disorders, # of Events: 0
  Cardiac disorders, n (%): 0 n (%)
  Contusion, # of Events: 1
  Contusion, n (%): 1(5.6) n (%)
  Depression, # of Events: 0
  Depression, n (%): 0 n (%)
  Dermatitis, # of Events: 0
  Dermatitis, n (%): 0 n (%)
  Diarrhoea, # of Events: 1
  Diarrhoea, n (%): 1(5.6) n (%)
  Erythema, # of Events: 0
  Erythema, n (%): 0 n (%)
  Gastrointestinal disorders, # of Events: 1
  Gastrointestinal disorders, n (%): 1 (5.6) n (%)
  Headache, # of Events: 0
  Headache, n (%): 0 n (%)
  Infections and infestations, # of Events: 0
  Infections and infestations, n (%): 0 n (%)
  Injury, poisoning, and procedural complications, # of Events: 1
  Injury, poisoning, and procedural complications, n (%): 1 (5.6) n (%)
  Nervous system disorders, # of Events: 1
  Nervous system disorders, n (%): 1 (5.6) n (%)
  Psychiatric disorders, # of Events: 0
  Psychiatric disorders, n (%): 0 n (%)
  Skin and subcutaneous tissue disorders, # of Events: 0
  Skin and subcutaneous tissue disorders, n (%): 0 n (%)
  Somnolence, # of Events: 1
  Somnolence, n (%): 1 (5.6) n (%)
  Swelling face, # of Events: 0
  Swelling face, n (%): 0 n (%)
  Tachycardia, # of Events: 0
  Tachycardia, n (%): 0 n (%)
  Urinary tract infection, # of Events: 0
  Urinary tract infection, n (%): 0 n (%)
[2]; [6]
  At least 1 TEAE, # of Events: 5
  At least 1 TEAE, n (%): 4 (33.3) n (%)
  Cardiac disorders, # of Events: 0
  Cardiac disorders, n (%): 0 n (%)
  Contusion, # of Events: 1
  Contusion, n (%): 1 (8.3) n (%)
  Depression, # of Events: 1
  Depression, n (%): 1 (8.3) n (%)
  Dermatitis, # of Events: 0
  Dermatitis, n (%): 0 n (%)
  Diarrhoea, # of Events: 0
  Diarrhoea, n (%): 0 n (%)
  Erythema, # of Events: 1
  Erythema, n (%): 1 (8.3) n (%)
  Gastrointestinal disorders, # of Events: 0
  Gastrointestinal disorders, n (%): 0 n (%)
  Headache, # of Events: 1
  Headache, n (%): 1 (8.3) n (%)
  Infections and infestations, # of Events: 0
  Infections and infestations, n (%): 0 n (%)
  Injury, poisoning, and procedural complications, # of Events: 1
  Injury, poisoning, and procedural complications, n (%): 1 (8.3) n (%)
  Nervous system disorders, # of Events: 1
  Nervous system disorders, n (%): 1 (8.3) n (%)
  Psychiatric disorders, # of Events: 1
  Psychiatric disorders, n (%): 1 (8.3) n (%)
  Skin and subcutaneous tissue disorders, # of Events: 2
  Skin and subcutaneous tissue disorders, n (%): 1 (8.3) n (%)
  Somnolence, # of Events: 0
  Somnolence, n (%): 0 n (%)
  Swelling face, # of Events: 1
  Swelling face, n (%): 1 (8.3) n (%)
  Tachycardia, # of Events: 0
  Tachycardia, n (%): 0 n (%)
  Urinary tract infection, # of Events: 0
  Urinary tract infection, n (%): 0 n (%)
[2]; any timepoint
  OAA/S change from baseline composite score between treatments: No significant differences
[2]; headache and diarrhoea
  TEAEs considered possibly related to the study drug: 2
[2]; human, in vivo
  PR interval or QTcB interval: No trends in mean change from baseline
  SBP, DBP, oxygen saturation, temperature: No notable mean changes from baseline
  adverse reactions at the patch application site: no adverse reactions noted at the patch application site
  deaths or SAEs: no deaths or SAEs
  laboratory parameters: no clinically significant abnormal trends
  severe TEAEs: no severe TEAEs
[2]; ketamine high dose
  respiratory rate and HR: a decrease in mean respiratory rate and an increase in HR compared to baseline
[2]; low-dose or high-dose
  BPRS, BPRS-Positive subscale, CADSS total score post-patch application: no increase in the total score of the BPRS, the BPRS-Positive subscale, or the CADSS
[2]; somnolence
  TEAEs considered probably related to the study drug: 1
[3]; humans
  absolute oral bioavailability: 10-20%
[3]; in vivo
  systemic (primarily hepatic) clearance: about 19 ml/min·kg
[4]; 0.5 mg/kg 40 minutes IV infusion
  time after which side effects typically resolved: about 2 hours
[4]; IV infusion or intranasal spray
  duration of antidepressant effect after single dose: about 3 days
[4]; low-dose IV, perioperative pain, meta-analysis
  reduction of opioid consumption: 40%
